Patent publication US20200405697A1, “Antitumor Agent” (Taiho Pharmaceutical Co., Ltd, priority 2017, published 2020)

The compounds below were run against T1, human RNR (histidine tagged human M1 and human M2 proteins) (Homo sapiens, UniProt P23921) (assay: Human RNR inhibition effect (dCDP formation from CDP)). Settings: 10 μM CDP, 37° C. for 30 minutes, read-out: RNR inhibitory activity IC50.
T1 construct: made in house; host or cells: Escherichia coli
T1 sequence (P23921 1-792): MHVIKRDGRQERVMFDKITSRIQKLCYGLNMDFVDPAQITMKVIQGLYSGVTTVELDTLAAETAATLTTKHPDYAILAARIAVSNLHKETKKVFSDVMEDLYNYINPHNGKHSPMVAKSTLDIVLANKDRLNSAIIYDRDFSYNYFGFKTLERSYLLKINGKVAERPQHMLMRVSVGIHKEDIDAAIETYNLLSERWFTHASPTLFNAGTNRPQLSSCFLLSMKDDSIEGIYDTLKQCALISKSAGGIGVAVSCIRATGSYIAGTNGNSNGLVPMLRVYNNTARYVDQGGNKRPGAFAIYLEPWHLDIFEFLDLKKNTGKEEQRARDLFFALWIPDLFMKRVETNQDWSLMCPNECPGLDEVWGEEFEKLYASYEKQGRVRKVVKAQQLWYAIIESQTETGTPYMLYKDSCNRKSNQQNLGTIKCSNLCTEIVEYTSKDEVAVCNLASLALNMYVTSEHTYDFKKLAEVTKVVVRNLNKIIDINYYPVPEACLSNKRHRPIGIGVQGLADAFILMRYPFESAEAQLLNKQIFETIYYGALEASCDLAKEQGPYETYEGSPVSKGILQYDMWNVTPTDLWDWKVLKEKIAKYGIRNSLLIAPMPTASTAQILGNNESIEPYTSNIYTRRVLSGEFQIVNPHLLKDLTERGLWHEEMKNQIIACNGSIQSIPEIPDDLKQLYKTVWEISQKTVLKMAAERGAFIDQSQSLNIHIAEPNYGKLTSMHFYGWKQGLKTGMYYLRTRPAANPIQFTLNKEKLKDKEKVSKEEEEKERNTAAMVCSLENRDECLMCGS
Type: biochemical
Experimental: The inhibitory activity against the ribonucleotide reduction reaction (RNR inhibitory activity) of the Example compound was determined by measuring the formation of deoxycytidine diphosphate (hereinafter referred to as dCDP) from cytidine diphosphate (hereinafter referred to as CDP) by the following method.
Human M1 subunit (isoform 1, GenBank accession No: NM_001033), to which a histidine tag is fused at the amino terminus, and human M2 subunit (mutant lacking amino terminal 59 amino acids of isoform 2, GenBank accession No: NM_001034), to which a histidine tag is fused, were overexpressed in Escherichia coli and were solubilized after collection, and histidine tagged human M1 and histidine tagged human M2 proteins were purified on a nickel chelate column. A mixture of the histidine tagged human M1 and histidine tagged human M2 proteins was used as RNR in the ribonucleotide reduction reaction. [to]
First, Example compounds were serially diluted with DMSO. Next, human M1 protein and human M2 protein were added to a 0.02% aqueous albumin solution derived from fetal bovine serum, a DMSO solution of the Example compound or the control DMSO solution (final concentration of DMSO was 1%) was added, and the mixture was allowed to stand for 20 minutes. Thereafter, the reaction buffer [50 mM HEPES buffer (pH 7.2) at the final concentration, 4 mM magnesium acetate at the final concentration, 100 mM potassium chloride at the final concentration, 6 mM dithiothreitol at the final concentration, 2 mM adenosine triphosphate at the final concentration, 0.24 mM nicotinamide adenine dinucleotide phosphate at final concentration] and 10 μM CDP at the final concentration were added and incubated at 37° C. for 30 minutes to perform ribonucleotide reduction reaction. Immediately after the reaction, the reaction was stopped by heating at 100° C. for 15 minutes, followed by centrifugation at 10,000 rpm for 10 minutes. After the centrifugation, a portion (5 μL) of the resulting supernatant was analyzed with a high performance liquid chromatography (Shimadzu Corporation, Prominence) using Shim-pack XR-ODS (manufactured by Shimadzu GLC Co., 3.0×100 mm).
Compound `COc1cc(Cl)ccc1S(=O)(=O)N[C@H](c1n[nH]c(=O)o1)[C@H](C)c1c(F)ccc(C#N)c1C` [Example 104, 4-chloro-N-((1S,2R)-2-(3-cyano-6-fluoro-2-methylphenyl)-1-(5-oxo-4,5-dihydro-1,3,4-oxadiazol-2-yl)propyl)-2-methoxybenzenesulfonamide] has an IC50 of 840 nM.
`C[C@H](c1c(F)ccc2ccccc12)[C@H](NS(=O)(=O)c1ccc(Cl)c2c1OCCC2F)c1n[nH]c(=O)o1` (mixture of isomers) [Example 292, 5-chloro-4-fluoro-N-((1S,2R)-2-(2-fluoronaphthalen-1-yl)-1-(5-oxo-4,5-dihydro-1,3,4-oxadiazol-2-yl)propyl)chroman-8-sulfonamide] gave an IC50 of 160 nM.
`Cc1ccc(F)c([C@@H](C)[C@H](NS(=O)(=O)c2ccc(Br)c(C#N)c2)c2n[nH]c(=O)o2)c1C` [Example 343, 4-bromo-3-cyano-N-((1S,2R)-(6-fluoro-2,3-dimethylphenyl)-1-(5-oxo-4,5-dihydro-1,3,4-oxadiazol-2-yl)propyl)benzenesulfonamide] gave an IC50 of 640 nM.
For `COc1cc(Cl)ccc1S(=O)(=O)N[C@H](c1n[nH]c(=O)o1)[C@H](C)c1c(F)ccc(-c2ccn(C)n2)c1C` [Example 305, 4-chloro-N-((1S,2R)-2-(6-fluoro-2-methyl-3-(1-methyl-1H-pyrazol-3-yl)phenyl)-1-(5-oxo-4,5-dihydro-1,3,4-oxadiazol-2-yl)propyl)-2-methoxybenzenesulfonamide], the IC50 was 240 nM.
`Cc1c(Br)ccc(F)c1[C@@H](C)[C@H](NS(=O)(=O)c1ccc(Br)cc1C(N)=O)c1n[nH]c(=O)o1` [Example 35, 5-bromo-2-(N-((1S,2R)-2-(3-bromo-6-fluoro-2-methylphenyl)-1-(5-oxo-4,5-dihydro-1,3,4-oxadiazol-2-yl)propyl)sulfamoyl)benzamide] was tested, and the IC50 was 130 nM.
Work on `Cc1ccc(F)c([C@@H](C)[C@H](NS(=O)(=O)c2ccc(F)c3c2OCCC3O)c2n[nH]c(=O)o2)c1C` (single isomer, unassigned) [Example 230B] yielded an IC50 of 50 nM.
Compound `Cc1ccc(F)c([C@@H](C)[C@H](NS(=O)(=O)c2cc(C(=O)N3CCOCC3)ccc2C(N)=O)c2n[nH]c(=O)o2)c1C` [Example 36, 2-(N-((1S,2R)-2-(6-fluoro-2,3-dimethylphenyl)-1-(5-oxo-4,5-dihydro-1,3,4-oxadiazol-2-yl)propyl)sulfamoyl)-4-(morpholine-4-carbonyl)benzamide] has an IC50 of 110 nM.
`COc1cc(Cl)ccc1S(=O)(=O)N[C@H](c1n[nH]c(=O)o1)[C@H](C)c1c(F)ccc(-c2cnn(C3CC3)c2)c1C` [Example 311, 4-chloro-N-((1S,2R)-2-(3-(1-cyclopropyl-1H-pyrazol-4-yl)-6-fluoro-2-methylphenyl)-1-(5-oxo-4,5-dihydro-1,3,4-oxadiazol-2-yl)propyl)-2-methoxybenzenesulfonamide] was tested, and the IC50 was 220 nM.
`Cc1ccc(F)c([C@@H](C)[C@H](NS(=O)(=O)c2ccc(Cl)c3c2OCC(=O)N3CC(F)F)c2n[nH]c(=O)o2)c1C` [Example 101, 5-chloro-4-(2,2-difluoroethyl)-N-((1S,2R)-2-(6-fluoro-2,3-dimethylphenyl)-1-(5-oxo-4,5-dihydro-1,3,4-oxadiazol-2-yl)propyl)-3-oxo-3,4-dihydro-2H-benzo[b][1,4]oxazine-8-sulfonamide] gave an IC50 of 130 nM.
`Cc1ccc(F)c([C@@H](C)[C@H](NS(=O)(=O)c2c(F)cc(F)c3c2OCCC3O)c2n[nH]c(=O)o2)c1C` (stereo partly drawn) [Example 242, 5,7-difluoro-N-((1S,2R)-2-(6-fluoro-2,3-dimethylphenyl)-1-(5-oxo-4,5-dihydro-1,3,4-oxadiazol-2-yl)propyl)-4-hydroxychroman-8-sulfonamide] showed an IC50 of 230 nM.
Work on `COC(=O)c1cc(S(=O)(=O)N[C@H](c2n[nH]c(=S)o2)[C@H](C)c2cccc3c2CCC3)ccc1Cl` [Example 334, methyl 2-chloro-5-(N-((1S,2R)-2-(2,3-dihydro-1H-inden-4-yl)-1-(5-thioxo-4,5-dihydro-1,3,4-oxadiazol-2-yl)propyl)sulfamoyl)benzoate] yielded an IC50 of 830 nM.
Compound `Cc1ccc(F)c([C@@H](C)[C@H](NS(=O)(=O)c2ccc(Cl)cc2C(=O)NCCO)c2n[nH]c(=O)o2)c1C` [Example 248, 5-chloro-2-(N-((1S,2R)-2-(6-fluoro-2,3-dimethylphenyl)-1-(5-oxo-4,5-dihydro-1,3,4-oxadiazol-2-yl)propyl)sulfamoyl)-N-(2-hydroxyethyl)benzamide] has an IC50 of 270 nM.
`Cc1ccc(F)c([C@@H](C)[C@H](NS(=O)(=O)c2ccc(Cl)c3c2OCCC3O)c2n[nH]c(=O)o2)c1C` (single isomer, unassigned) [Example 235B] was tested, and the IC50 was 70 nM.
`C[C@H](c1c(F)ccc2ccccc12)[C@H](NS(=O)(=O)c1ccc(Cl)cc1C(N)=O)c1n[nH]c(=O)o1` [Example 6, 5-chloro-2-(N-((1S,2R)-2-(2-fluoronaphthalen-1-yl)-1-(5-oxo-4,5-dihydro-1,3,4-oxadiazol-2-yl)propyl)sulfamoyl)benzamide] was tested, and the IC50 was 110 nM.
Work on `COc1cc(Cl)ccc1S(=O)(=O)N[C@H](c1n[nH]c(=O)o1)[C@H](C)c1c(C)c(C)cc(F)c1F` [Example 90, 4-chloro-N-((1S,2R)-2-(2,3-difluoro-5,6-dimethylphenyl)-1-(5-oxo-4,5-dihydro-1,3,4-oxadiazol-2-yl)propyl)-2-methoxybenzenesulfonamide] yielded an IC50 of 160 nM.
`COc1ccccc1-c1ccc(C(N)=O)c(S(=O)(=O)N[C@H](c2n[nH]c(=O)o2)[C@H](C)c2c(F)ccc(C)c2C)c1` [Example 345] showed an IC50 of 250 nM.
`COc1nc(Cl)ccc1S(=O)(=O)N[C@H](c1n[nH]c(=O)o1)[C@H](C)c1c(F)ccc(C)c1C` [Example 148, 6-chloro-N-((1S,2R)-2-(6-fluoro-2,3-dimethylphenyl)-1-(5-oxo-4,5-dihydro-1,3,4-oxadiazol-2-yl)propyl)-2-methoxypyridine-3-sulfonamide] showed an IC50 of 100 nM.
`CCN1CCOc2c(S(=O)(=O)N[C@H](c3n[nH]c(=O)o3)[C@H](C)c3c(F)ccc(C)c3C)ccc(Cl)c21` [Example 94, 5-chloro-4-ethyl-N-((1S,2R)-2-(6-fluoro-2,3-dimethylphenyl)-1-(5-oxo4,5-dihydro-1,3,4-oxadiazol-2-yl)propyl)-3,4-dihydro-2H-benzo[b][1,4]oxazine-8-sulfonamide] was tested, and the IC50 was 110 nM.
For `C[C@H](c1c(F)ccc2ccccc12)[C@H](NS(=O)(=O)c1ccc(Br)cc1C(N)=O)c1n[nH]c(=O)o1` [Example 15, 5-bromo-2-(N-((1S,2R)-2-(2-fluoronaphthalen-1-yl)-1-(5-oxo-4,5-dihydro-1,3,4-oxadiazol-2-yl)propyl)sulfamoyl)benzamide], the IC50 was 100 nM.
`COc1cc(Cl)ccc1S(=O)(=O)N[C@H](c1n[nH]c(=S)[nH]1)[C@H](C)c1c(F)ccc(C)c1C` [Example 350] gave an IC50 of 460 nM.
`COc1cc(Cl)ccc1S(=O)(=O)N[C@H](c1n[nH]c(=O)o1)[C@H](C)c1c(F)ccc(-c2cn[nH]c2)c1C` [Example 303, 4-chloro-N-((1S,2R)-2-(6-fluoro-2-methyl-3-(1H-pyrazol-4-yl)phenyl)-1-(5-oxo-4,5-dihydro-1,3,4-oxadiazol-2-yl)propyl)-2-methoxybenzensulfonamide] showed an IC50 of 160 nM.
In the case of `Cc1ccc(F)c([C@@H](C)[C@H](NS(=O)(=O)c2cnc(Cl)cc2C(N)=O)c2n[nH]c(=O)o2)c1C` [Example 40, 2-chloro-5-(N-((1S,2R)-2-(6-fluoro-2,3-dimethylphenyl)-1-(5-oxo-4,5-dihydro-1,3,4-oxadiazol-2-yl)propyl)sulfamoyl)isonicotinamide], the IC50 is reported as 130 nM.
